According to the PolyMetriX glass transition set:
± gives the standard deviation of the reports.

Experiments:
[1] = not given; remark: listed apart in the source

Row | SMILES | glass transition temperature | glass transition temperature [1]
1 | *Oc1c(F)c(F)c(Oc2c(F)c(F)c3c(c2F)C(=O)N(c2c(F)c(F)c(Oc4c(F)c(F)c(N5C(=O)c6c(F)c(*)c(F)c(F)c6C5=O)c(F)c4F)c(F)c2F)C3=O)c(F)c1F (repeat unit) | 300.00 °C | 
2 | *C(=O)c1ccc2c(c1)C(=O)N(c1ccc(S(=O)(=O)c3ccc(N4C(=O)c5ccc(*)cc5C4=O)cc3)cc1)C2=O (repeat unit) | 307.00 °C | 
3 | *Oc1cccc2c1C(=O)N(c1cccc(Oc3ccc(C(=O)c4ccc(Oc5cccc(N6C(=O)c7cccc(*)c7C6=O)c5)cc4)cc3)c1)C2=O (repeat unit) | 198.00 °C | 
4 | *Oc1cccc(S(=O)(=O)c2ccc(Oc3ccc4c(c3)C(=O)N(c3ccc(Oc5ccc(N6C(=O)c7ccc(*)cc7C6=O)cc5)cc3)C4=O)cc2)c1 (repeat unit) | 260.00 °C | 
5 | *c1ccc2c(c1)C(=O)N(c1ccc(Oc3ccc(P(=O)(c4ccccc4)c4ccc(Oc5cccc(N6C(=O)c7ccc(C(*)(C(F)(F)F)C(F)(F)F)cc7C6=O)c5)cc4)cc3)cc1)C2=O (repeat unit) | 220.00 °C | 
6 | *Oc1cccc(Sc2ccc(Oc3ccc4c(c3)C(=O)N(c3ccc(Oc5ccc(N6C(=O)c7ccc(*)cc7C6=O)cc5)cc3)C4=O)cc2)c1 (repeat unit) | 212.00 °C | 
7 | *c1ccc(-c2ccc(N3C(=O)c4cc5c(cc4C3=O)C(c3ccccc3)(C(F)(F)F)c3cc4c(cc3O5)C(=O)N(*)C4=O)cc2C(F)(F)F)c(C(F)(F)F)c1 (repeat unit) | 400.00 °C | 
8 | *C(=O)c1ccc2c(c1)C(=O)N(c1cc(N3C(=O)c4ccc(*)cc4C3=O)ccc1OCC(F)(F)C(F)(F)C(F)(F)C(F)(F)C(F)(F)C(F)(F)C(F)(F)C(F)(F)C(F)(F)C(F)(F)F)C2=O (repeat unit) | 194.00 °C | 
9 | *Oc1ccc2c(c1)C(=O)N(c1cccc(Oc3ccc(P(=O)(c4ccccc4)c4ccc(Oc5ccc(N6C(=O)c7ccc(*)cc7C6=O)cc5)cc4)cc3)c1)C2=O (repeat unit) | 240.00 °C | 
10 | *c1ccc2c(c1)C(=O)N(c1ccc(-c3ccc(N4C(=O)c5ccc(C(*)(C(F)(F)F)C(F)(F)F)cc5C4=O)cc3-c3ccccc3C(F)(F)F)c(-c3ccccc3C(F)(F)F)c1)C2=O (repeat unit) | 289.00 °C | 
11 | *Oc1cccc(C(C)(C)c2ccc(Oc3ccc4c(c3)C(=O)N(c3cccc(N5C(=O)c6ccc(*)cc6C5=O)c3)C4=O)cc2)c1 (repeat unit) | 215.00 °C | 
12 | *Oc1ccc(C(c2ccc(Oc3cccc4c3C(=O)N(c3ccc(Oc5ccc(N6C(=O)c7cccc(*)c7C6=O)cc5)cc3)C4=O)cc2)(C(F)(F)F)C(F)(F)F)cc1 (repeat unit) | 226.00 °C | 
13 | *C(=O)c1ccc2c(c1)C(=O)N(c1ccc(C(=O)Oc3ccc4ccccc4c3-c3c(OC(=O)c4ccc(N5C(=O)c6ccc(*)cc6C5=O)cc4)ccc4ccccc34)cc1)C2=O (repeat unit) | 273.50 °C | 
14 | *c1ccc(C(=O)c2ccccc2-n2c(=O)c3cc4c(=O)n(*)c(=O)c4cc3c2=O)cc1 (repeat unit) | 321.00 °C | 
15 | *c1ccc2c(c1)C(=O)N(c1ccc(OCC(F)(F)C(F)(F)C(F)(F)F)c(N3C(=O)c4ccc(C(*)(C(F)(F)F)C(F)(F)F)cc4C3=O)c1)C2=O (repeat unit) | 266.00 °C | 
16 | *c1ccc2c(c1)C(=O)N(c1ccc(Cc3ccc(N4C(=O)c5ccc(*)cc5C4=O)c(C)c3C)c(C)c1C)C2=O (repeat unit) | 297.00 °C | 
17 | *Oc1cccc(S(=O)(=O)c2ccc(Oc3cccc4c3C(=O)N(c3ccc(Oc5ccc(N6C(=O)c7cccc(*)c7C6=O)cc5)cc3)C4=O)cc2)c1 (repeat unit) | 267.00 °C | 
18 | *c1ccc(P(=O)(c2ccccc2)c2ccc(N3C(=O)c4ccc(-c5ccc6c(c5)C(=O)N(*)C6=O)cc4C3=O)cc2)cc1 (repeat unit) | 371.00 °C | 
19 | *Oc1cccc(Sc2ccc(Oc3cccc4c3C(=O)N(c3ccc(Oc5ccc(N6C(=O)c7cccc(*)c7C6=O)cc5)cc3)C4=O)cc2)c1 (repeat unit) | 234.00 °C | 
20 | *c1ccc2c(c1)C(=O)N(c1c(F)cc(Oc3ccc(C(c4ccc(Oc5cc(F)c(N6C(=O)c7ccc(C(*)(C(F)(F)F)C(F)(F)F)cc7C6=O)c(F)c5)cc4)(C(F)(F)F)C(F)(F)F)cc3)cc1F)C2=O (repeat unit) | 224.00 °C | 
21 | *C(=O)c1ccc2c(c1)C(=O)N(c1cccc(C(=O)c3cccc(N4C(=O)c5ccc(*)cc5C4=O)c3)c1)C2=O (repeat unit) [Polyimide] | 220 ± 130 °C | 
22 | *Nc1cccc(NC(=O)c2cc(NC(=O)c3ccncc3)cc(C(*)=O)c2)c1 (repeat unit) |  | 321.00 °C
23 | *c1ccc2c(c1)C(=O)N(c1ccc(Oc3ccc(C(c4ccc(Oc5ccc(N6C(=O)c7ccc(C(*)(C(F)(F)F)C(F)(F)F)cc7C6=O)cc5)cc4)(C(F)(F)F)C(F)(F)F)cc3)cc1)C2=O (repeat unit) |  | 247.00 ± 16 °C
24 | *C(=O)Nc1cccc(Oc2cccc(Oc3cccc(Oc4cccc(Oc5cccc(NC(=O)c6ccc7c(c6)C(=O)N(c6cccc(Oc8cccc(Oc9cccc(N%10C(=O)c%11ccc(*)cc%11C%10=O)c9)c8C#N)c6)C7=O)c5)c4C#N)c3)c2C#N)c1 (repeat unit) |  | 193.00 °C
25 | *c1ccc(Oc2ccc(-c3c(-c4ccccc4)nc4ccc(-c5ccc6nc(-c7ccccc7)c(*)c(-c7ccccc7)c6c5)cc4c3-c3ccccc3)cc2)cc1 (repeat unit) |  | 307.50 °C
26 | *Oc1ccc(/N=C(\C)c2ccc(Oc3ccc(C(C)(C)c4ccc(Oc5ccc(/C(C)=N/c6ccc(*)cc6)cc5)cc4)cc3)cc2)cc1 (repeat unit) |  | 141.00 °C

The next lines start with the values.

Row | glass transition temperature | glass transition temperature [1] | SMILES
27 | 287.00 °C |  | *C(=O)c1ccc2c(c1)C(=O)N(c1ccc(Oc3ccccc3N3C(=O)c4ccc(*)cc4C3=O)cc1)C2=O (repeat unit)
28 | 231.00 °C |  | *Oc1cccc(Sc2ccc(Oc3cccc4c3C(=O)N(c3cccc(N5C(=O)c6cccc(*)c6C5=O)c3)C4=O)cc2)c1 (repeat unit)
29 | 205.50 ± 2.1 °C |  | *Oc1ccc2c(c1)C(=O)N(c1cccc(Oc3ccc(C(=O)c4ccc(Oc5cccc(N6C(=O)c7cccc(*)c7C6=O)c5)cc4)cc3)c1)C2=O (repeat unit)
30 | 238.00 ± 5.7 °C |  | *Sc1ccc2c(c1)C(=O)N(c1ccc(Oc3ccc(Oc4ccc(N5C(=O)c6cccc(*)c6C5=O)cc4)cc3)cc1)C2=O (repeat unit)
31 | 306.00 ± 26 °C |  | *c1cccc2c1C(=O)N(c1ccc(Oc3ccc(N4C(=O)c5cccc(*)c5C4=O)cc3)cc1)C2=O (repeat unit)
32 | 290.00 °C |  | *C(=O)c1ccc2c(c1)C(=O)N(c1ccc(Cc3ccccc3N3C(=O)c4ccc(*)cc4C3=O)cc1)C2=O (repeat unit)
33 | 215.00 °C |  | *Oc1ccc(C(C)(C)c2ccc(Cc3ccc4c(c3)C(=O)N(c3cccc(N5C(=O)c6ccc(*)cc6C5=O)c3)C4=O)cc2)cc1 (repeat unit)
34 | 299.50 ± 0.7 °C |  | *c1cccc2c1C(=O)N(c1ccc(Cc3ccc(N4C(=O)c5cccc(*)c5C4=O)c(C)c3)cc1C)C2=O (repeat unit)
35 | 262.00 °C |  | *c1cc(N2C(=O)c3ccc(-c4ccc5c(c4)C(=O)N(*)C5=O)cc3C2=O)ccc1OCC(F)(F)C(F)(F)C(F)(F)C(F)(F)C(F)(F)C(F)(F)F (repeat unit)
36 | 210.00 °C |  | *Oc1cccc(C(=O)c2ccc(Oc3ccc4c(c3)C(=O)N(c3ccc(Oc5ccc(N6C(=O)c7ccc(*)cc7C6=O)cc5)cc3)C4=O)cc2)c1 (repeat unit)
37 | 386.00 °C |  | *c1ccc(Oc2ccccc2N2C(=O)c3cc4c(cc3C2=O)C(=O)N(*)C4)cc1 (repeat unit)
38 | 274.00 °C |  | *Oc1ccc2c(c1)C(=O)N(c1ccc(C(=O)c3ccc(N4C(=O)c5ccc(*)cc5C4=O)cc3)cc1)C2=O (repeat unit)
39 | 265.00 °C |  | *Oc1cccc(S(=O)(=O)c2ccc(Oc3ccc4c(c3)C(=O)N(c3cccc(N5C(=O)c6ccc(*)cc6C5=O)c3)C4=O)cc2)c1 (repeat unit)
40 |  | 300.00 °C | *C(=O)Nc1ccc(C(=O)Nc2ccc(NC(=O)c3ccc4[nH]c(-c5ccc(-c6nc7cc(*)ccc7[nH]6)cc5)nc4c3)cc2)cc1 (repeat unit)
41 |  | 255.00 °C | *c1ccccc1CCc1ccc(N2C(=O)C(=O)N(c3ccc(C)c(N4C(=O)C(=O)N(*)C4=O)c3)C2=O)cc1 (repeat unit)
42 |  | 48.00 °C | *CC(*)(C)C(=O)OCCCCCOc1ccc2cc(C(=O)Oc3ccccc3)ccc2c1 (repeat unit)
43 |  | 48.00 °C | *c1nc(C)nc(N(CCCCCCCCCCN(*)c2ccccc2)c2ccccc2)n1 (repeat unit)
44 |  | 50.00 °C | *Oc1ccc(OC(=O)c2cc(OCCCCCCCOCC3CCCN3c3ccc([N+](=O)[O-])cc3)c(C(*)=O)cc2OCCCCCCCOCC2CCCN2c2ccc([N+](=O)[O-])cc2)cc1 (repeat unit)
45 |  | 24.00 °C | *CCC1CC(OC(=O)CCCCCCCCCCOc2ccc(-c3ccc(C#N)cc3)cc2)CC1* (repeat unit)
46 |  | 144.60 °C | *Oc1ccc(Oc2ccc(Nc3ccc(S(=O)(=O)c4ccc(Nc5ccc(*)cc5)cc4)cc3)cc2)cc1 (repeat unit)
47 |  | 163.00 °C | */C(=C(/c1ccc(*)cc1)c1ccc(Oc2ccccc2)cc1)c1ccc(Oc2ccccc2)cc1 (repeat unit)
